Target: S. aureus GyrB ATPase (Staphylococcus aureus, UniProt P0A0K8)
Assay: biochemical
Details: compound at 1 μM; one value per test if tested more than once; read-out: % Inhibition of S. aureus GyrB ATPase
Method in brief: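 IC50 values derive from 10-point titrations of compound (in DMSO). Phosphate formed from 250 μM ATP was quantified by acidic molybdate/malachite green after quenching.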

Sequence of S. aureus GyrB ATPase (P0A0K8 whole entry): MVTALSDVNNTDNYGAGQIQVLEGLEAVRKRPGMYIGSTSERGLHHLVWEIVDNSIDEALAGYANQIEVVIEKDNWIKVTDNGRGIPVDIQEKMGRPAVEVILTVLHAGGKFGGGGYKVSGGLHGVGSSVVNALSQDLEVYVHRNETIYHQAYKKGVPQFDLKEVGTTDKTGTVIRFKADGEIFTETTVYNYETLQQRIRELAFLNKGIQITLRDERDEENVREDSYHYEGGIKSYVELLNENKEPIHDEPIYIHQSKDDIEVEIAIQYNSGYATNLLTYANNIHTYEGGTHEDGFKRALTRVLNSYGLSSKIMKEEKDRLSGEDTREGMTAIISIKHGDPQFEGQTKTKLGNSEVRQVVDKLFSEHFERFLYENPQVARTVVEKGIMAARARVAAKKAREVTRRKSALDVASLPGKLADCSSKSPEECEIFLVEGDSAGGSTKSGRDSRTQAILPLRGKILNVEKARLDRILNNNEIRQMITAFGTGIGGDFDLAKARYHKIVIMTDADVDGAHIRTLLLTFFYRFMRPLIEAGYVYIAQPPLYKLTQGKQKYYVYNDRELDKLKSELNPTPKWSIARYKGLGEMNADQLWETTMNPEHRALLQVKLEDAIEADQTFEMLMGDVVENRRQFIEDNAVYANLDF
Sequence of S. aureus GyrB ATPase (P0AES4 whole entry, further chain): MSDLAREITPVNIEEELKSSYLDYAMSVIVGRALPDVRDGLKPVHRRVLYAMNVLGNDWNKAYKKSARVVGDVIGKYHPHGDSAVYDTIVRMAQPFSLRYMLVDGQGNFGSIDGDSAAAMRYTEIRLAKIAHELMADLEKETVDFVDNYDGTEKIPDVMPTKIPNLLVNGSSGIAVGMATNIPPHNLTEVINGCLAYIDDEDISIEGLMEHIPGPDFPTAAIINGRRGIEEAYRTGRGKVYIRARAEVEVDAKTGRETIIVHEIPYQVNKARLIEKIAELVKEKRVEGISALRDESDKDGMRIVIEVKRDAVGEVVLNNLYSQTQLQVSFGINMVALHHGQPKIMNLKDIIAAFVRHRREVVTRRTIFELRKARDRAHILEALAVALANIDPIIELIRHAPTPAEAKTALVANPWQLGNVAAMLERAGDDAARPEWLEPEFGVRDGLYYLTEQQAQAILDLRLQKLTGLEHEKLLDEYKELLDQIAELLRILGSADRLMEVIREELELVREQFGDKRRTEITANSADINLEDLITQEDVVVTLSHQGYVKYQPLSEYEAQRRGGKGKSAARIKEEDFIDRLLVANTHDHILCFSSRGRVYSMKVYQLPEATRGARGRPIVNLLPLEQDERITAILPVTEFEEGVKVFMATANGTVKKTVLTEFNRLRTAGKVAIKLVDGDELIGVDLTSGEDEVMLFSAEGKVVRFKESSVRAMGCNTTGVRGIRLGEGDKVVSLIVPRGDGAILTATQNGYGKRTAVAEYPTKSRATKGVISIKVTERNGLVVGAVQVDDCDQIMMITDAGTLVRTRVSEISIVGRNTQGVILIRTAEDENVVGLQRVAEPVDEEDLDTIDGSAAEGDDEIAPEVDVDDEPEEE

Row | Structure (SMILES) | inhibition at 1 µM [%]
1 | CCCNC(=O)Nc1cc(-c2nc(C(F)(F)F)cs2)c(-c2ccc3c(c2)c(=O)c(C(=O)O)cn3CCOC)cn1 [Example 191, 1-(2-methoxyethyl)-4-oxo-6-(6-(3-propylureido)-4-(4-(trifluoromethyl)thiazol-2-yl)pyridin-3-yl)-1,4-dihydroquinoline-3-carboxylic acid] | 94
2 | CCCNC(=O)Nc1cc(-c2nc(C(F)(F)F)cs2)c(-c2ccc3c(c2)c(=O)c(C(=O)O)cn3C2CCOCC2)cn1 [Example 192, 4-oxo-6-(6-(3-propylureido)-4-(4-(trifluoromethyl)thiazol-2-yl)pyridin-3-yl)-1-(tetrahydro-2H-pyran-4-yl)-1,4-dihydroquinoline-3-carboxylic acid] | 92
3 | CCCNC(=O)Nc1cc(-c2nc(C(F)(F)F)cs2)c(-c2ccc3c(c2)c(=O)c(C(=O)O)cn3CCN2CCOCC2)cn1 [Example 193, 1-(2-morpholinoethyl)-4-oxo-6-(6-(3-propylureido)-4-(4-(trifluoromethyl)thiazol-2-yl)pyridin-3-yl)-1,4-dihydroquinoline-3-carboxylic acid] | 93
4 | COCCn1cc(C(=O)O)c(=O)c2cc(-c3cnc(NC(=O)NC(C)C)cc3-c3nc(C(F)(F)F)cs3)ccc21 [Example 194, 6-(6-(3-isopropylureido)-4-(4-(trifluoromethyl)thiazol-2-yl)pyridin-3-yl)-1-(2-methoxyethyl)-4-oxo-1,4-dihydroquinoline-3-carboxylic acid] | 93
5 | CC(C)NC(=O)Nc1cc(-c2nc(C(F)(F)F)cs2)c(-c2ccc3c(c2)c(=O)c(C(=O)O)cn3CCN2CCOCC2)cn1 [Example 195, 6-(6-(3-isopropylureido)-4-(4-(trifluoromethyl)thiazol-2-yl)pyridin-3-yl)-1-(2-morpholinoethyl)-4-oxo-1,4-dihydroquinoline-3-carboxylic acid] | 98
6 | CC(C)NC(=O)Nc1cc(-c2nc(C(F)(F)F)cs2)c(-c2ccc3c(c2)c(=O)c(C(=O)O)cn3CCC2CCOCC2)cn1 [Example 197, 7-(6-(3-isopropylureido)-4-(4-(trifluoromethyl)thiazol-2-yl)pyridin-3-yl)-4-oxo-1-(2-(tetrahydro-2H-pyran-4-yl)ethyl)-1,4-dihydroquinoline-3-carboxylate] | 116
7 | CCCNC(=O)Nc1cc(-c2nc(C(F)(F)F)cs2)c(-c2ccc3c(c2)c(=O)c(C(=O)O)cn3CCC2CCN(C)CC2)cn1 [Example 198, 1-(2-(1-methylpiperidin-4-yl)ethyl)-4-oxo-6-(6-(3-propylureido)-4-(4-(trifluoromethyl)thiazol-2-yl)pyridin-3-yl)-1,4-dihydroquinoline-3-carboxylic acid] | 108
8 | CC(C)NC(=O)Nc1cc(-c2nc(C(F)(F)F)cs2)c(-c2ccc3c(c2)c(=O)c(C(=O)O)cn3C2CCOCC2)cn1 [Example 199, 6-(6-(3-isopropylureido)-4-(4-(trifluoromethyl)thiazol-2-yl)pyridin-3-yl)-4-oxo-1-(tetrahydro-2H-pyran-4-yl)-1,4-dihydroquinoline-3-carboxylic acid] | 103
9 | CCCNC(=O)Nc1cc(-c2nc(C(F)(F)F)cs2)c(-c2ccc3c(c2)c(=O)c(C(=O)O)cn3CCC2CCOCC2)cn1 [Example 200, 4-oxo-6-(6-(3-propylureido)-4-(4-(trifluoromethyl)thiazol-2-yl)pyridin-3-yl)-1-(2-(tetrahydro-2H-pyran-4-yl)ethyl)-1,4-dihydroquinoline-3-carboxylic acid] | 111
10 | CC(C)NC(=O)Nc1cc(-c2nc(C(F)(F)F)cs2)c(-c2ccc3c(c2)c(=O)c(C(=O)O)cn3CCC2CCN(C)CC2)cn1 [Example 202, 6-(6-(3-isopropylureido)-4-(4-(trifluoromethyl)thiazol-2-yl)pyridin-3-yl)-1-(2-(1-methylpiperidin-4-yl)ethyl)-4-oxo-1,4-dihydroquinoline-3-carboxylic acid] | 103
11 | CCCNC(=O)Nc1cc(-c2nc(C(F)(F)F)cs2)c(-c2ccc3c(c2)c(=O)c(C(=O)NCCO)cn3CCN(C)C)cn1 [Example 203, 1-(2-(dimethylamino)ethyl)-N-(2-hydroxyethyl)-4-oxo-6-(6-(3-propylureido)-4-(4-(trifluoromethyl)thiazol-2-yl)pyridin-3-yl)-1,4-dihydroquinoline-3-carboxamide] | 87
12 | CCCNC(=O)Nc1cc(-c2nc(C(F)(F)F)cs2)c(-c2ccc3c(c2)c(=O)c(C(=O)NCCO)cn3CCN2CCOCC2)cn1 [Example 205, N-(2-hydroxyethyl)-1-(2-morpholinoethyl)-4-oxo-6-(6-(3-propylureido)-4-(4-(trifluoromethyl)thiazol-2-yl)pyridin-3-yl)-1,4-dihydroquinoline-3-carboxamide] | 94
13 | CCCNC(=O)Nc1cc(-c2nc(C(F)(F)F)cs2)c(-c2ccc3c(c2)c(=O)c(C(=O)NCCO)cn3C2CCOCC2)cn1 [Example 206, N-(2-hydroxyethyl)-4-oxo-6-(6-(3-propylureido)-4-(4-(trifluoromethyl)thiazol-2-yl)pyridin-3-yl)-1-(tetrahydro-2H-pyran-4-yl)-1,4-dihydroquinoline-3-carboxamide] | 92
14 | CCCNC(=O)Nc1cc(-c2nc(C(F)(F)F)cs2)c(-c2ccc3c(c2)c(=O)c(C(=O)NCCO)cn3CCOC)cn1 [Example 207, N-(2-hydroxyethyl)-1-(2-methoxyethyl)-4-oxo-6-(6-(3-propylureido)-4-(4-(trifluoromethyl)thiazol-2-yl)pyridin-3-yl)-1,4-dihydroquinoline-3-carboxamide] | 93
15 | COCCn1cc(C(=O)NCCO)c(=O)c2cc(-c3cnc(NC(=O)NC(C)C)cc3-c3nc(C(F)(F)F)cs3)ccc21 [Example 208, N-(2-hydroxyethyl)-6-(6-(3-isopropylureido)-4-(4-(trifluoromethyl)thiazol-2-yl)pyridin-3-yl)-1-(2-methoxyethyl)-4-oxo-1,4-dihydroquinoline-3-carboxamide] | 97
16 | CC(C)NC(=O)Nc1cc(-c2nc(C(F)(F)F)cs2)c(-c2ccc3c(c2)c(=O)c(C(=O)NCCO)cn3C2CCOCC2)cn1 [Example 210, N-(2-hydroxyethyl)-6-(6-(3-isopropylureido)-4-(4-(trifluoromethyl)thiazol-2-yl)pyridin-3-yl)-4-oxo-1-(tetrahydro-2H-pyran-4-yl)-1,4-dihydroquinoline-3-carboxamide] | 93
17 | CC(C)NC(=O)Nc1cc(-c2nc(C(F)(F)F)cs2)c(-c2ccc3c(c2)c(=O)c(C(=O)NCCO)cn3CCN2CCN(C)CC2)cn1 [Example 212] | 94
18 | CCCNC(=O)Nc1cc(-c2nc(C(F)(F)F)cs2)c(-c2ccc3c(c2)c(=O)c(C(=O)NCCO)cn3CCC2CCN(C)CC2)cn1 [Example 213] | 94
19 | CCCNC(=O)Nc1cc(-c2nc(C(F)(F)F)cs2)c(-c2ccc3c(c2)c(=O)c(C(=O)NCCO)cn3CCC2CCOCC2)cn1 [Example 214, N-(2-hydroxyethyl)-4-oxo-6-(6-(3-propylureido)-4-(4-(trifluoromethyl)thiazol-2-yl)pyridin-3-yl)-1-(2-(tetrahydro-2H-pyran-4-yl)ethyl)-1,4-dihydroquinoline-3-carboxamide] | 118
20 | CC(C)NC(=O)Nc1cc(-c2nc(C(F)(F)F)cs2)c(-c2ccc3c(c2)c(=O)c(C(=O)NCCO)cn3CCC2CCN(C)CC2)cn1 [Example 216, N-(2-hydroxyethyl)-6-(6-(3-isopropylureido)-4-(4-(trifluoromethyl)thiazol-2-yl)pyridin-3-yl)-1-(2-(1-methylpiperidin-4-yl)ethyl)-4-oxo-1,4-dihydroquinoline-3-carboxamide] | 109
21 | CCCNC(=O)Nc1cc(-c2nc(C(F)(F)F)cs2)c(-c2ccc3c(c2)c(=O)c(C(=O)NCCN(C)C)cn3CCN(C)C)cn1 [Example 219, N,1-bis(2-(dimethylamino)ethyl)-4-oxo-6-(6-(3-propylureido)-4-(4-(trifluoromethyl)thiazol-2-yl)pyridin-3-yl)-1,4-dihydroquinoline-3-carboxamide] | 86
22 | CC(C)NC(=O)Nc1cc(-c2nc(C(F)(F)F)cs2)c(-c2ccc3c(c2)c(=O)c(C(=O)NCCN(C)C)cn3CCC2CCN(C)CC2)cn1 [Example 226] | 94
23 | CC(C)NC(=O)Nc1cc(-c2nc(C(F)(F)F)cs2)c(-c2ccc3c(c2)c(=O)c(C(=O)NCCN(C)C)cn3CCN2CCN(C)CC2)cn1 [Example 227, N-(2-(dimethylamino)ethyl)-6-(6-(3-isopropylureido)-4-(4-(trifluoromethyl)thiazol-2-yl)pyridin-3-yl)-1-(2-(4-methylpiperazin-1-yl)ethyl)-4-oxo-1,4-dihydroquinoline-3-carboxamide] | 91
24 | CCCNC(=O)Nc1cc(-c2nc(C(F)(F)F)cs2)c(-c2ccc3c(c2)c(=O)c(C(=O)NCCN(C)C)cn3CCC2CCOCC2)cn1 [Example 232, N-(2-(dimethylamino)ethyl)-4-oxo-6-(6-(3-propylureido)-4-(4-(trifluoromethyl)thiazol-2-yl)pyridin-3-yl)-1-(2-(tetrahydro-2H-pyran-4-yl)ethyl)-1,4-dihydroquinoline-3-carboxamide] | 98
25 | CCNC(=O)Nc1cc(-c2nc(C(F)(F)F)cs2)c(-c2ccc3c(c2)c(=O)c(C(=O)O)cn3C[C@@H]2CCN(CCN3CCOCC3)C2)cn1 [Example 237, (R)-6-(6-(3-ethylureido)-4-(4-(trifluoromethyl)thiazol-2-yl)pyridin-3-yl)-1-((1-(2-morpholinoethyl)pyrrolidin-3-yl)methyl)-4-oxo-1,4-dihydroquinoline-3-carboxylic acid] | 103
26 | CCNC(=O)Nc1cc(-c2nc(C(F)(F)F)cs2)c(-c2ccc3c(c2)c(=O)c(C(=O)O)cn3C[C@H]2CCN(CCN3CCOCC3)C2)cn1 [Example 238, (S)-6-(6-(3-ethylureido)-4-(4-(trifluoromethyl)thiazol-2-yl)pyridin-3-yl)-1-((1-(2-morpholinoethyl)pyrrolidin-3-yl)methyl)-4-oxo-1,4-dihydroquinoline-3-carboxylic acid] | 97

— patent US8283361B2 (AstraZeneca AB, priority 2008, dated 2012)
